Test results from PubChem BioAssay AID2060496 (Molecular Pharmacology Branch, DTP, NCI, 2025).

System: 276233-004-R-J1-PDC complex spheroid viability
Assay: Anticancer human tumor 276233-004-R-J1-PDC patient-derived colon adenocarcinoma cell line growth inhibition [GQUAD]
Conditions: for IC50: curve of first compound; for viability, T/C: stronger effect = lower value
In short: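 Multi-cell-type spheroids of tumor cells with HUVEC and mesenchymal stem cells, treated with drug combinations. Concentrations descend in half-log steps from near clinical Cmax, or from 10 microM where Cmax is unknown; viability read-out.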

[1] = second compound 0.0316 µM, first compound 0.0316 µM
[2] = second compound 0.0316 µM, first compound 0.316 µM
[3] = second compound 0.1 µM, first compound 0.0316 µM
[4] = second compound 0.1 µM, first compound 0.316 µM
[5] = second compound 0.316 µM, first compound 0.0316 µM
[6] = second compound 0.316 µM, first compound 0.316 µM
[7] = second compound 1 µM, first compound 0.0316 µM
[8] = second compound 1 µM, first compound 0.316 µM
[9] = second compound 3.16 µM, first compound 0.0316 µM
[10] = second compound 3.16 µM, first compound 0.316 µM
[11] = second compound 10 µM, first compound 0.0316 µM
[12] = second compound 10 µM, first compound 0.316 µM
[13] = second compound 0.0316 µM, first compound 0.1 µM
[14] = second compound 0.0316 µM, first compound 1 µM
[15] = second compound 0.0316 µM, first compound 3.16 µM
[16] = second compound 0.0316 µM, first compound 10 µM
[17] = second compound 0.1 µM, first compound 0.1 µM
[18] = second compound 0.1 µM, first compound 1 µM
[19] = second compound 0.1 µM, first compound 3.16 µM
[20] = second compound 0.1 µM, first compound 10 µM
[21] = second compound 0.316 µM, first compound 0.1 µM
[22] = second compound 0.316 µM, first compound 1 µM
[23] = second compound 0.316 µM, first compound 3.16 µM
[24] = second compound 0.316 µM, first compound 10 µM
[25] = second compound 1 µM, first compound 0.1 µM
[26] = second compound 1 µM, first compound 1 µM
[27] = second compound 1 µM, first compound 3.16 µM
[28] = second compound 1 µM, first compound 10 µM
[29] = second compound 3.16 µM, first compound 0.1 µM
[30] = second compound 3.16 µM, first compound 1 µM
[31] = second compound 3.16 µM, first compound 3.16 µM
[32] = second compound 3.16 µM, first compound 10 µM
[33] = second compound 10 µM, first compound 0.1 µM
[34] = second compound 10 µM, first compound 1 µM
[35] = second compound 10 µM, first compound 3.16 µM
[36] = second compound 10 µM, first compound 10 µM
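Note: spheroids exposed to drugs for seven days.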
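Throughout, for viability, T/C: 100% = DMSO vehicle control viability.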

## CCc1c2c(nc3ccc(O)cc13)-c1cc3c(c(=O)n1C2)COC(=O)[C@]3(O)CC + Cc1[nH]c2ccc(F)cc2c1-c1nc2c3cccnc3c3ncccc3c2[nH]1
Second compound 0.0316 µM
  IC50: > 0.316 µM
Second compound 0.1 µM
  IC50: > 0.316 µM
Second compound 0.316 µM
  IC50: > 0.316 µM
Second compound 1 µM
  IC50: > 0.316 µM
Second compound 3.16 µM
  IC50: > 0.316 µM
Second compound 10 µM
  IC50: < 0.000999 µM
Second compound 0.0316 µM, first compound 0.000999 µM
  viability, T/C: 104%
Second compound 0.0316 µM, first compound 0.00316 µM
  viability, T/C: 72.7%
Second compound 0.0316 µM, first compound 0.00999 µM
  viability, T/C: 85.2%
[1]
  viability, T/C: 103%
Second compound 0.0316 µM, first compound 0.0999 µM
  viability, T/C: 106%
[2]
  viability, T/C: 94.2%
Second compound 0.1 µM, first compound 0.000999 µM
  viability, T/C: 76.3%
Second compound 0.1 µM, first compound 0.00316 µM
  viability, T/C: 89.8%
Second compound 0.1 µM, first compound 0.00999 µM
  viability, T/C: 79.5%
[3]
  viability, T/C: 97.5%
Second compound 0.1 µM, first compound 0.0999 µM
  viability, T/C: 111%
[4]
  viability, T/C: 90.4%
Second compound 0.316 µM, first compound 0.000999 µM
  viability, T/C: 78.8%
Second compound 0.316 µM, first compound 0.00316 µM
  viability, T/C: 82.6%
Second compound 0.316 µM, first compound 0.00999 µM
  viability, T/C: 78.1%
[5]
  viability, T/C: 94.1%
Second compound 0.316 µM, first compound 0.0999 µM
  viability, T/C: 97.2%
[6]
  viability, T/C: 88.1%
Second compound 1 µM, first compound 0.000999 µM
  viability, T/C: 62.8%
Second compound 1 µM, first compound 0.00316 µM
  viability, T/C: 82.7%
Second compound 1 µM, first compound 0.00999 µM
  viability, T/C: 80.5%
[7]
  viability, T/C: 81.6%
Second compound 1 µM, first compound 0.0999 µM
  viability, T/C: 90.1%
[8]
  viability, T/C: 73.5%
Second compound 3.16 µM, first compound 0.000999 µM
  viability, T/C: 58.7%
Second compound 3.16 µM, first compound 0.00316 µM
  viability, T/C: 57.3%
Second compound 3.16 µM, first compound 0.00999 µM
  viability, T/C: 54%
[9]
  viability, T/C: 62.3%
Second compound 3.16 µM, first compound 0.0999 µM
  viability, T/C: 67.3%
[10]
  viability, T/C: 67.3%
Second compound 10 µM, first compound 0.000999 µM
  viability, T/C: 39.8%
Second compound 10 µM, first compound 0.00316 µM
  viability, T/C: 41.1%
Second compound 10 µM, first compound 0.00999 µM
  viability, T/C: 56.8%
[11]
  viability, T/C: 62.2%
Second compound 10 µM, first compound 0.0999 µM
  viability, T/C: 55.4%
[12]
  viability, T/C: 54.8%

## COc1cccc2c1C(=O)c1c(O)c3c(c(O)c1C2=O)CC(O)(C(=O)CO)CC3OC1CC(N)C(O)C(C)O1 (stereo unspecified) + Cc1[nH]c2ccc(F)cc2c1-c1nc2c3cccnc3c3ncccc3c2[nH]1
Second compound 0.0316 µM
  IC50: 2.48 µM
Second compound 0.1 µM
  IC50: 4.57 µM
Second compound 0.316 µM
  IC50: 3.27 µM
Second compound 1 µM
  IC50: 3.6 µM
Second compound 3.16 µM
  IC50: 0.415 µM
Second compound 10 µM
  IC50: < 0.0316 µM
[1]
  viability, T/C: 79.4%
[13]
  viability, T/C: 79.9%
[2]
  viability, T/C: 108%
[14]
  viability, T/C: 64.9%
[15]
  viability, T/C: 53%
[16]
  viability, T/C: 39%
[3]
  viability, T/C: 82.6%
[17]
  viability, T/C: 96.3%
[4]
  viability, T/C: 75.3%
[18]
  viability, T/C: 89.1%
[19]
  viability, T/C: 54.2%
[20]
  viability, T/C: 40.9%
[5]
  viability, T/C: 82.6%
[21]
  viability, T/C: 82.6%
[6]
  viability, T/C: 81.3%
[22]
  viability, T/C: 77.2%
[23]
  viability, T/C: 50.5%
[24]
  viability, T/C: 34.2%
[7]
  viability, T/C: 57.2%
[25]
  viability, T/C: 78.3%
[8]
  viability, T/C: 70.1%
[26]
  viability, T/C: 70.9%
[27]
  viability, T/C: 52.1%
[28]
  viability, T/C: 33.8%
[9]
  viability, T/C: 50.7%
[29]
  viability, T/C: 63.5%
[10]
  viability, T/C: 52.3%
[30]
  viability, T/C: 41.4%
[31]
  viability, T/C: 43.3%
[32]
  viability, T/C: 35.7%
[11]
  viability, T/C: 50%
[33]
  viability, T/C: 44.4%
[12]
  viability, T/C: 49.1%
[34]
  viability, T/C: 47.6%
[35]
  viability, T/C: 39.7%
[36]
  viability, T/C: 27.6%

## Nc1ccn(C2OC(CO)C(O)C2(F)F)c(=O)n1 (stereo unspecified) + Cc1[nH]c2ccc(F)cc2c1-c1nc2c3cccnc3c3ncccc3c2[nH]1
Second compound 0.0316 µM
  IC50: > 10 µM
Second compound 0.1 µM
  IC50: > 10 µM
Second compound 0.316 µM
  IC50: > 10 µM
Second compound 1 µM
  IC50: > 10 µM
Second compound 3.16 µM
  IC50: < 0.0316 µM
Second compound 10 µM
  IC50: < 0.0316 µM
[1]
  viability, T/C: 102%
[13]
  viability, T/C: 74.9%
[2]
  viability, T/C: 74.1%
[14]
  viability, T/C: 71%
[15]
  viability, T/C: 66.2%
[16]
  viability, T/C: 78.4%
[3]
  viability, T/C: 72.1%
[17]
  viability, T/C: 88.4%
[4]
  viability, T/C: 61.7%
[18]
  viability, T/C: 76.3%
[19]
  viability, T/C: 82.9%
[20]
  viability, T/C: 67.8%
[5]
  viability, T/C: 67%
[21]
  viability, T/C: 74.8%
[6]
  viability, T/C: 79.4%
[22]
  viability, T/C: 73%
[23]
  viability, T/C: 83.2%
[24]
  viability, T/C: 63.6%
[7]
  viability, T/C: 65%
[25]
  viability, T/C: 58.5%
[8]
  viability, T/C: 68.8%
[26]
  viability, T/C: 76.7%
[27]
  viability, T/C: 65.8%
[28]
  viability, T/C: 64.8%
[9]
  viability, T/C: 53.8%
[29]
  viability, T/C: 42%
[10]
  viability, T/C: 50.6%
[30]
  viability, T/C: 50.1%
[31]
  viability, T/C: 51.9%
[32]
  viability, T/C: 59.3%
[11]
  viability, T/C: 39.7%
[33]
  viability, T/C: 43%
[12]
  viability, T/C: 43.4%
[34]
  viability, T/C: 40.2%
[35]
  viability, T/C: 42.2%
[36]
  viability, T/C: 40%
